# Source: paper PMC11233931, “Remodeling tumor‐associated macrophage for anti‐cancer effects by rational design of irreversible inhibition of mitogen‐activated protein kinase‐activated protein kinase 2” (MedComm, 2024)
# Like-named read-outs stand apart in the source and are kept apart here.
# What was measured:
# Assay in all cases: Eurofins kinase selectivity profile against 380 other human recombinant kinases (Table S2)
# Assay type in all cases: biochemical
# [1] = target: T1, 380 human recombinant protein kinases (Homo sapiens, UniProt P29322); details: EphA8(h), read-out: Inhibition rate
# T1 construct: purchased Eurofins (Celle Lévescault)
# T1 sequence (P29322 28-1005): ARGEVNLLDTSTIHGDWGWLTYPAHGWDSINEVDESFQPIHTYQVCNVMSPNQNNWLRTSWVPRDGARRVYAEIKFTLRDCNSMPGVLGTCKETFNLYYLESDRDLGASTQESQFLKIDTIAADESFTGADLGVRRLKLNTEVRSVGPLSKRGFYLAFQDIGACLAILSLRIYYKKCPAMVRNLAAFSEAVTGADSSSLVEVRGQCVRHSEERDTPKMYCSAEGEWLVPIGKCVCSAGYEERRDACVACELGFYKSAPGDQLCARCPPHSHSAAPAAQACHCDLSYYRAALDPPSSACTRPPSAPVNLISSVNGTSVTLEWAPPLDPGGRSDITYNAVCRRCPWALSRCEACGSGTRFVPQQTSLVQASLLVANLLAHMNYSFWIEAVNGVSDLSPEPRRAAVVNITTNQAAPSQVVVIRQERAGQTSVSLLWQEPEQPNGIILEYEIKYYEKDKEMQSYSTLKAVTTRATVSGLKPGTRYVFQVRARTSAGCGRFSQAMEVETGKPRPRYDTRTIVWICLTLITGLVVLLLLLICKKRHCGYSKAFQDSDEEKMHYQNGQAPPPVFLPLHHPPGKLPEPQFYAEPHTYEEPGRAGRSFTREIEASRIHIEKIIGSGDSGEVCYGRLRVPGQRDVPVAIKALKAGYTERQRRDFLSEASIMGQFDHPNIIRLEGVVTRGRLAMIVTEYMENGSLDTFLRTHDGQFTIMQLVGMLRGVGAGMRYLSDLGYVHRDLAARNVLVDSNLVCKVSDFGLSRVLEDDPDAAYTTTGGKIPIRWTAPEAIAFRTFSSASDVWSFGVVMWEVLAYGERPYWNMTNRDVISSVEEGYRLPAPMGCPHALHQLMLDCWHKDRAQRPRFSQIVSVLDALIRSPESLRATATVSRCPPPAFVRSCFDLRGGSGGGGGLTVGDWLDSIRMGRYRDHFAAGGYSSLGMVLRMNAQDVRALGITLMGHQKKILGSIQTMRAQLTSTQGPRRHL
# Summary of the method: (§1)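 The inhibitor was sent to a contract lab and screened at various concentrations against 380 human recombinant protein kinases. This served as a counter-screen for MK2 specificity.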
# [2] = target: T2, 380 human recombinant protein kinases (Homo sapiens, UniProt Q00535); details: read-out: Inhibition rate; for inhibition at 0.01 µM: 10 nM; for inhibition at 0.1 µM: 100 nM; for inhibition at 1 µM: 1000 nM
# T2 construct: purchased Eurofins (Celle Lévescault)
# T2 sequence (Q00535 whole entry): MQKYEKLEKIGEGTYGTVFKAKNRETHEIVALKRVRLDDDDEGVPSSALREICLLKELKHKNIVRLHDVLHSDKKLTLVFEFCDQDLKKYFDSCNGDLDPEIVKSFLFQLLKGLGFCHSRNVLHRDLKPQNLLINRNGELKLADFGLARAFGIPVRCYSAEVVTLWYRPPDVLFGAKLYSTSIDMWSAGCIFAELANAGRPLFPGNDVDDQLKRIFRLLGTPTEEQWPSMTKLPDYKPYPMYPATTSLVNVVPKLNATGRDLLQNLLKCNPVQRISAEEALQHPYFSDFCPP
# Summary of the method: as §1
# [3] = target: T3, 380 human recombinant protein kinases (Homo sapiens, UniProt Q9H422); details: HIPK3(h), read-out: Inhibition rate
# T3 construct: purchased Eurofins (Celle Lévescault)
# T3 sequence (Q9H422 whole entry): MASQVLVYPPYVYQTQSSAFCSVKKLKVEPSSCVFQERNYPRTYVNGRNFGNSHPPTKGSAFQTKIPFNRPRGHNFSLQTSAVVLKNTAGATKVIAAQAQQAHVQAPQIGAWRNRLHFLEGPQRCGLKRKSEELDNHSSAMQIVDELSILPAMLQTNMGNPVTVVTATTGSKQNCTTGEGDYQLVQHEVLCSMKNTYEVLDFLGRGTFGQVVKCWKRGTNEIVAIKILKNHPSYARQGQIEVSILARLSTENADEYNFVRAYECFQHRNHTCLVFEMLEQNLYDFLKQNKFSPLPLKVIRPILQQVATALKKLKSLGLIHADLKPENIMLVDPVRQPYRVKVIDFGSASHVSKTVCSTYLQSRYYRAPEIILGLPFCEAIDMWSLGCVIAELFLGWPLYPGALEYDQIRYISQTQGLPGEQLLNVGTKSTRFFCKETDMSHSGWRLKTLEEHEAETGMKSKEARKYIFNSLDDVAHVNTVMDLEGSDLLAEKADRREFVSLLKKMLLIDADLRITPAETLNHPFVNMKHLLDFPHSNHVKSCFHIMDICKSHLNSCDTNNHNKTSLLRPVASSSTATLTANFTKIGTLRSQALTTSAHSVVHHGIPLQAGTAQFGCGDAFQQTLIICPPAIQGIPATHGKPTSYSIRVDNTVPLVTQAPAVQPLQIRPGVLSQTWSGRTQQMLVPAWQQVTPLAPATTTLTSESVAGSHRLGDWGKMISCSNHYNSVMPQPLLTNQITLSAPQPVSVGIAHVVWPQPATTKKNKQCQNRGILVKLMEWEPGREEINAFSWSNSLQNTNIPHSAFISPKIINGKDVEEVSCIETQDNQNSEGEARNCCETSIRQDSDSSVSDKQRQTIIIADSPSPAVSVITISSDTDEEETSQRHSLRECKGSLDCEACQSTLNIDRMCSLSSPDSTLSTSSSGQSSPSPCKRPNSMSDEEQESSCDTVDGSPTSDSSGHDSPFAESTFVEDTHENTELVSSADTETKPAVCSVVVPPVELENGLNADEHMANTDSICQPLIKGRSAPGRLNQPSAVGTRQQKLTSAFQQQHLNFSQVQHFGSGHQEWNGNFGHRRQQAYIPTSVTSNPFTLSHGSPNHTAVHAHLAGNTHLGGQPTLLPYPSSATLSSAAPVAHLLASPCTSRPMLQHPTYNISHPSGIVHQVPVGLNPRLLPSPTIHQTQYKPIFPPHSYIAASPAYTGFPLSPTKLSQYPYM
# Summary of the method: as §1
# [4] = target: T4, 380 human recombinant protein kinases (Homo sapiens, UniProt Q16288); details: TrkC(h), read-out: Inhibition rate (%)
# T4 construct: purchased Eurofins (Celle Lévescault)
# T4 sequence (Q16288 32-839): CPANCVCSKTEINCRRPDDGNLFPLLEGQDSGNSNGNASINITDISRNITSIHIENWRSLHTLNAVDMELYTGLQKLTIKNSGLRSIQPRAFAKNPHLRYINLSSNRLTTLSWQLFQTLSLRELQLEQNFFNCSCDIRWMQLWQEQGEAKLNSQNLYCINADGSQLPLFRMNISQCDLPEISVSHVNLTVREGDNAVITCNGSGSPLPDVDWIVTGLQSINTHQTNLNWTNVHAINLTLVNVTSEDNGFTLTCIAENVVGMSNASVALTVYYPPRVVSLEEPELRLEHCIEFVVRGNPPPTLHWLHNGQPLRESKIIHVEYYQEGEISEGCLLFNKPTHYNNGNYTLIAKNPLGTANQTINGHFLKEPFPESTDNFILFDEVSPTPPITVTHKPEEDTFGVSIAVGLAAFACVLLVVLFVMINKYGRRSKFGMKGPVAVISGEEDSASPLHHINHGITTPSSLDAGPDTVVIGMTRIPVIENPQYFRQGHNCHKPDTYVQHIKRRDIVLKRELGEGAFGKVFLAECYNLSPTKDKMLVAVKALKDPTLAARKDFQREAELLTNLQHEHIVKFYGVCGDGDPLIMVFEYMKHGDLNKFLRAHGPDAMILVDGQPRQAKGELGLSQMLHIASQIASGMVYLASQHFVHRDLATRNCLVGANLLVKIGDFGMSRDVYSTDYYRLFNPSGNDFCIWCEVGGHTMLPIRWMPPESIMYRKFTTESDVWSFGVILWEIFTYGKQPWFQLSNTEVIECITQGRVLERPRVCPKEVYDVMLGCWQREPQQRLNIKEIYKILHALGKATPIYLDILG
# Summary of the method: as §1
# [5] = target: T5, 380 human recombinant protein kinases (Homo sapiens, UniProt Q9NYL2); details: ZAK(h), read-out: Inhibition rate (%)
# T5 construct: purchased Eurofins (Celle Lévescault)
# T5 sequence (Q9NYL2 whole entry): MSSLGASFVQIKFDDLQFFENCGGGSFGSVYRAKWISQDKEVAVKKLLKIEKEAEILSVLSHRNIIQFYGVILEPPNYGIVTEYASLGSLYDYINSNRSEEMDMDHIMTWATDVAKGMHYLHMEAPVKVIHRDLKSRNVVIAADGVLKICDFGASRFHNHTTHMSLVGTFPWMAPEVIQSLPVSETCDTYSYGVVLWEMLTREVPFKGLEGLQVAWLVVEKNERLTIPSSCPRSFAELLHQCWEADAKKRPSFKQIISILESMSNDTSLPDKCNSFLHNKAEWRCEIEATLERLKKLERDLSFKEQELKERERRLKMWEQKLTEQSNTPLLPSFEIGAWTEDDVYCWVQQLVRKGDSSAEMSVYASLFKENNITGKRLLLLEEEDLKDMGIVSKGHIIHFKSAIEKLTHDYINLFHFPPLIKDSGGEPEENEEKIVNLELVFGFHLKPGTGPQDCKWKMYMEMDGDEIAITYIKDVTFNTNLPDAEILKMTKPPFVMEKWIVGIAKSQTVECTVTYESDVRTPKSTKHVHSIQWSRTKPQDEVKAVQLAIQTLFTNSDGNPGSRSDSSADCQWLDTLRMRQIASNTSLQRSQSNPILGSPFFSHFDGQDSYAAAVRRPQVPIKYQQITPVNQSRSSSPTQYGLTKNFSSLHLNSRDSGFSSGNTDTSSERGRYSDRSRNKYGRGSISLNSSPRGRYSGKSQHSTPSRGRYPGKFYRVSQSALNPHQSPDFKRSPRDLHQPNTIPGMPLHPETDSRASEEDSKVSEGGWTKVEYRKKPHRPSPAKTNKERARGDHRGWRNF
# Summary of the method: as §1
# [6] = target: T6, 380 human recombinant protein kinases (Homo sapiens, UniProt P51955); details: NEK2(h), read-out: Inhibition rate
# T6 construct: purchased Eurofins (Celle Lévescault)
# T6 sequence (P51955 1-445): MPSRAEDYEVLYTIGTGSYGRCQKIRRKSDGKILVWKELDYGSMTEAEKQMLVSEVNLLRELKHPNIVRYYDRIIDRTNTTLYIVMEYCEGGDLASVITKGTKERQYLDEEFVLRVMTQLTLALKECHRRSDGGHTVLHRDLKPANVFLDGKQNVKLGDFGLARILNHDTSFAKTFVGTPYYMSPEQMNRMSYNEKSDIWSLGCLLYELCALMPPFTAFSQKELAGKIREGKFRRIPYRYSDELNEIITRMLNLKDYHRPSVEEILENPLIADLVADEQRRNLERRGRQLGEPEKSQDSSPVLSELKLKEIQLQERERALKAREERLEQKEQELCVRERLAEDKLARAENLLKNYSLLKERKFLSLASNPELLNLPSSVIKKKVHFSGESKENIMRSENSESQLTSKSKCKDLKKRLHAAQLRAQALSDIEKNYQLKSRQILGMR
# Summary of the method: as §1
# [7] = target: T7, 380 human recombinant protein kinases (Homo sapiens, UniProt Q5TCY1); details: TTBK1(h), read-out: Inhibition rate (%)
# T7 construct: purchased Eurofins (Celle Lévescault)
# T7 sequence (Q5TCY1 whole entry): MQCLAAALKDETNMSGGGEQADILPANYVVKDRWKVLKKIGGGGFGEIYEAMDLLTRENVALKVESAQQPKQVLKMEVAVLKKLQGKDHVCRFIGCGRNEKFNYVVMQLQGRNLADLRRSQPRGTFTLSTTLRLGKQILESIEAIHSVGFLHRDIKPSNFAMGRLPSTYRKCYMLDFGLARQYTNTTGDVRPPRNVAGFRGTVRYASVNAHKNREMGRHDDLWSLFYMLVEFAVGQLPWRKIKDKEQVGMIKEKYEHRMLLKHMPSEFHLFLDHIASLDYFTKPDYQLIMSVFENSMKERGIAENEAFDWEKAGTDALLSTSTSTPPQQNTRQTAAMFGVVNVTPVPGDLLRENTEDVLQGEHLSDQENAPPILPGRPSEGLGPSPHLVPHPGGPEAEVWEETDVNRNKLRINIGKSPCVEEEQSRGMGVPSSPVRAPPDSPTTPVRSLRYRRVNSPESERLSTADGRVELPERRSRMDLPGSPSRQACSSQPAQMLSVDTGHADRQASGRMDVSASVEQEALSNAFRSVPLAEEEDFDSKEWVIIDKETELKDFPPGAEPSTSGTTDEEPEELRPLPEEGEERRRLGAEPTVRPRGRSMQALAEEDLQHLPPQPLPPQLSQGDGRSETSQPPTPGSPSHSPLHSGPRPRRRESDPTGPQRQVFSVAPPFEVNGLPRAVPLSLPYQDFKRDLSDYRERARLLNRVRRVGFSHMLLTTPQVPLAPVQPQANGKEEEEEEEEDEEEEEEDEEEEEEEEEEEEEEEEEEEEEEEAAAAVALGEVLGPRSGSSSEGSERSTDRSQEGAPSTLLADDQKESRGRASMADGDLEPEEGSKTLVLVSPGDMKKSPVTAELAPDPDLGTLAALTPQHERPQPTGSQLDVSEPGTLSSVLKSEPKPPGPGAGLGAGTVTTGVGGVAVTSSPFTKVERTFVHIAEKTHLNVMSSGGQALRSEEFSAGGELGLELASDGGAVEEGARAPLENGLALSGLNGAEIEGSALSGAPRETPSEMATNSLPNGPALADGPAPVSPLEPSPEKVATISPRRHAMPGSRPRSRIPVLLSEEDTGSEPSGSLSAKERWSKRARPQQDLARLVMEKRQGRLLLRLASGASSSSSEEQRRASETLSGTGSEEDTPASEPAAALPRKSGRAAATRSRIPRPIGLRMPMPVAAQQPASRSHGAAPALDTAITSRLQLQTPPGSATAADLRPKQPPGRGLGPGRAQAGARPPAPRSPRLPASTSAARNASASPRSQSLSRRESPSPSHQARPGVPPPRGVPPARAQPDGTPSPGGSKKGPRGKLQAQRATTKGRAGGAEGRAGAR
# Summary of the method: as §1
compound,measurement,setting,value
C=CC(=O)Nc1cc(-c2cc(-c3cc4c([nH]3)CCNC4=O)ccn2)ccc1OC(F)(F)F [compound 11],inhibition at 0.01 µM,[1]; 10 nM,1%
same,inhibition at 0.1 µM,[1]; 100 nM,2%
same,inhibition at 1 µM,[1]; 1000 nM,1%
same,inhibition at 0.01 µM,[2]; CDK5/p25(h),-6%
same,inhibition at 0.1 µM,[2]; CDK5/p25(h),2%
same,inhibition at 1 µM,[2]; CDK5/p25(h),-2%
same,inhibition at 0.01 µM,[2]; CDK5/p35(h),-7%
same,inhibition at 0.1 µM,[2]; CDK5/p35(h),-6%
same,inhibition at 1 µM,[2]; CDK5/p35(h),5%
same,inhibition at 0.01 µM,[3]; 10 nM,-9%
same,inhibition at 0.1 µM,[3]; 100 nM,-8%
same,inhibition at 1 µM,[3]; 1000 nM,1%
same,inhibition at 0.01 µM,[4]; 10 nM,-3%
same,inhibition at 0.1 µM,[4]; 100 nM,4%
same,inhibition at 1 µM,[4]; 1000 nM,-3%
same,inhibition at 0.01 µM,[5]; 10 nM,-3%
same,inhibition at 0.1 µM,[5]; 100 nM,-1%
same,inhibition at 1 µM,[5]; 1000 nM,1%
same,inhibition at 0.01 µM,[6]; 10 nM,-3%
same,inhibition at 0.1 µM,[6]; 100 nM,0%
same,inhibition at 1 µM,[6]; 1000 nM,11%
same,inhibition at 0.01 µM,[7]; 10 nM,-2%
same,inhibition at 0.1 µM,[7]; 100 nM,-5%
same,inhibition at 1 µM,[7]; 1000 nM,3%
